Results on six molecules are retold here after patent US20260240768A1, “PHARMACEUTICAL COMPOSITION COMPRISING NFL-TBS40-63 PEPTIDE, VARIANTS OR SALTS THEREOF AND ALANINE” (GLIOCURE, priority 2022, published 2026).

Several values for one entry are separate records, joined by “and”; a condition that tells them apart may be missing. Equal values may be shown once. Entries after “also recorded” stand apart in the source; their conditions may differ. Read-outs that look alike come from different tables or passages of the source. Where a SMILES comes first, the peptide text is derived from it. The star is where a group is joined. Biotin = O=C1N[C@H]2[C@H](CS[C@H]2CCCCC(=O)*)N1

Series [1] in a line: Filtration test (0.2 μm filter). It counts as physicochemical. The note with it: for effect on the presence of fibrils in NFL-TBS40-63 formulation: amino acid added instead of alanine. On the procedure:
Several formulations (containing NFL-TBS40-63 and various buffers, solubilizing and osmolarity adjusting agents) were tested for their aptitude to pass a 0.2 μm filter. […] The ease of filtration (manual pressure required) was recorded.
For grade 1 formulations, further filtration tests were performed with higher volumes of the test formulation, and a deliberately small filter area size, e.g. a 25 mm diameter with pores of 0.2 μm with 100 ml of the test formulation.

The test system of series [2] is neuroblastoma and glioblastoma cell lines. The settings on record: WO 2011/073207 and Bocquet et al. (2009); cited from earlier work.
Another series relates to U-87 MG cells. Put plainly: Calcein/PI flow cytometry after passage through the endothelial monolayer. It counts as cell-based, human. The settings on record: Transwell conditions + U-87 MG cells, 24 h treatment + 48 hours. The protocol:
After 24 hours of treatment, the endothelial cell monolayer was removed, and the U-87 MG cells were incubated at 37° C. for an additional 48 hours. At this time, U-87 MG cells were collected as previously described in section 1.4. To evaluate cell viability were stained with 1 μM of Calcein green (Thermo Fisher Scientific; Massachusetts, USA) for 30 min at room temperature in the dark. Then re-suspended in Propidium Iodide and analyzed by flow cytometry. 10,000 cells were measured for each experiment.

A short description of series [3]: Clarity test - degree of opalescence. Type of series: physicochemical. On the procedure: For preparations where the NFL-TBS40-63 peptide appeared to be visually dissolved (following the visual dissolution test), the clarity (opalescence) of the preparation was assessed, via visual inspection after placing the colourless glass tube close to a white light source. The degree of opalescence was a very useful predictor of a given preparation's ability to pass or block a sterilizing filter.

Series [4] relates to U-87 MG cells implanted in the brains of BALB/c Nude mice. Briefly: In vivo U-87 MG brain tumor in nude mice, tolerance and MALDI-TOF imaging. The note with it: intravenous injection in the formulation of the invention, 1 hour after the final injection.
Description: Seven-week-old female Balb/c nude mice (Janvier, France) were housed at the university animal facility (Service Commun d'Animalerie Hospitalo-Universitaire—Université d'Angers, France). Animals had free access to water and food throughout the experiment and their behavior and body weight were constantly monitored. All procedures involving animals, were conducted in accordance with protocols approved by ethical committee of the University of Angers and the regional ethics committee on animal experimentations.
Mice were anesthetized by intraperitoneal injection of a mixture of ketamine 10% (80 mg/kg) and xylazine 2% (10 mg/kg). […] The injection coordinates were 2.1 mm lateral, 0.5 mm posterior from the bregma and 2.5 mm deep from the outer border of the cranium. […] Animals were sacrificed 1 hour after the last injection, and brains were removed and frozen in nitrogen vapors.
The MALDI-TOF MS analysis was performed on a Bruker BIFLEX III mass spectrometer (Bruker Daltonics; Germany) equipped with a nitrogen laser (337 nm wavelength, 3 ns laser pulse duration) with reflection and in the positive ion mode. The MS data were acquired over a mass range of m/z 2714 Da with pixels of 100 μm diameter but the capturing area is of 40 μm per pixel. Data have been normalized by Root Mean Square and the image has been smoothed by reducing background noise. […]
Series [5] can be described thus: Scanning Electron Microscopy (SEM) of dry powder. Type of series: physicochemical. The note with it: Lot AW18189D and Lot HF44004B. On the procedure:
Scanning Electron Microscopy of NFL-TBS40-63 peptide dry powder was performed using an Jeol 6301F instrument. In brief, NFL-TBS40-63 peptide was lightly sprinkled onto double sided tape fixed to a SEM stub. Excess powder was shaken/tapped off, so as to leave a very thin layer of powder on the stub, which was then sputter coated with an ~10 nm layer of platinum, prior to observation. This technique allows visualization of the fibrils in the dry NFL-TBS40-63 peptide powder.

Series [6] in a line: Visual dissolution test / solubility of the peptide. Type of series: physicochemical.
In series [7] the test system is U-87 MG human GBM cells. Put plainly: MTS viability assay (mitochondrial activity). The note with it: 72 hours, peptide in Clinic vehicle F28C1 compared with Glucose 5%. Type of series: cell-based. On the procedure: (§1) Cells were seeded in 96-well plates at 1,000 per well for b.End3 murine endothelial cells and F98 rat GBM cells, and 5,000 cells and U-87 MG human GBM cells, and incubated for 24 hours at 37° C. and 5% CO2. Then, the culture media was removed and cells were treated for 72 hours at 37° C. and 5% CO2 with increasing concentrations (25, 50, 100 and 200 μM) of GC01-G5% (NFL-TBS40-63 peptide (GC01) partially solubilized with 5% glucose) or GC01.1 (NFL-TBS40-63 peptide (GC01) fully solubilized in the formulation of the invention F28C1), or with 1 μg/mL of colchicine, or the 5% glucose solution and the Clinic vehicle, diluted in fresh media. Cell viability was measured using the MTS viability assay (ab197010-Abcam; Paris, France). After rinsing the cells with 1×DPBS (Dulbecco's Phosphate Buffered Saline-Gibco; Dardilly, France), 20 μL of MTS reagent was added to each well for 2 hours. The number of living cells is directly proportional to the absorbance measured by the amount of light absorbance at 490 nm in a SpectraMax M2 multi-scanning spectrophotometer (Molecular Devices; San Jose, California, USA).
For orientation: Formazan colour is commonly taken as a measure of viable cells.

The subject of series [8] is b.End3 murine endothelial cells. Put plainly: MTS viability assay (mitochondrial activity). Type of series: cell-based. The settings on record: 72 hours, peptide in Clinic vehicle F28C1 compared with Glucose 5%. On the procedure: as §1
Series [9] in a line: Dynamic Light Scattering (DLS). Type of series: physicochemical. On the procedure:
FIG. 4A-C: DLS graphs showing the effect of the heating of the formulation containing L-alanine at different temperatures before adding NFL-TBS40-63 peptide followed by mixing for 1 h30 at A. room temperature (RT); B. 30-35° C., and C. 40-45° C. […] Low attenuator values (e.g. ≤8) indicate that there were substantially more particles in the sample.
Dynamic Light Scattering (DLS) measurements were performed on the several formulations of grade 1 and 2 using a Malvern Nano-S instrument. Although the technique is not quantitative, it provided important information on the relative size of the objects (fibrils) present in the various formulations, throughout out the process of dissolution.
The attenuator value also gives a measure of the quantity of particles present: the higher the attenuator value, the less particles present.

The nature of series [10]: Transmission Electron Microscopy (TEM) of fibrils. Type of series: physicochemical. The protocol:
Transmission Electron Microscopy imaging of various formulations was performed using a Jeol JEM-1400 instrument. Sample preparation was as follows: one drop of the liquid to be examined was deposited onto a TEM gird and allowed to settle for ~1 minute. Excess liquid was then absorbed with blotting paper, and one drop of a 2% solution of uranyl acetate was deposited on the grid. After ~2 minutes the excess solution was absorbed with blotting paper, and the grid was rinsed twice, using with a drop of water each time. The grid was then dried, prior to examination in the TEM. This technique allowed visualization of the fibrils of NFL-TBS40-63 peptide in the various formulations and in water.

In series [11] the test system is U-87 MG human GBM cells. Put plainly: Immunocytochemistry of tubulin. It counts as cell-based. The settings on record: 100 μM, 48 hours. The protocol: (§2) To visualize the treatment internalization, 20,000 and 35,000 cells per well for b.End3 murine endothelial cells and U-87 MG human GBM cells, respectively, were seeded in 24-well plates containing one coverslip previously coated with poly (d) lysine 0.1 mg/ml per well and washed three times with 1×DPBS (Sigma-Aldrich; Saint-Louis, USA) and incubated for 24 hours at 37° C. and 5% CO2. Then, the cells were incubated with 100 μM of GC01-G5% (NFL-TBS40-63 peptide (GC01) peptide partially solubilized with 5% glucose) or 100 μM of GC01.1 (NFL-TBS40-63 peptide (GC01) fully solubilized in the formulation of the invention F28C1), or with 1 μg/mL of colchicine for 48 hours at 37° C. At the end of the incubation time, cells were washed three times with 1×DPBS and fixed with 4% paraformaldehyde (15714-Delta microscopies; Mauressac, France) for 10 min at room temperature. Then, treated cells were permeabilized with 0.2% triton X-100 (T9284—Sigma-Aldrich; Saint-Louis, USA) for 10 min, and blocked with 5% bovine serum albumin (A7030—Sigma-Aldrich; Saint-Louis, USA) for 45 min at room temperature. Cells were co-incubated with a mouse anti-a tubulin (ab7750-Abcam; Paris, France) and a rabbit anti-βIII tubulin antibodies at 1:250 (T2200—Sigma-Aldrich; Saint-Louis, USA) overnight at 4° C. […]

Series [12] relates to b.End3 murine endothelial cells. Put plainly: Immunocytochemistry of tubulin. Type of series: cell-based. The note with it: 100 μM, 48 hours. On the procedure:
as §2

With `CC[C@H](C)[C@H](N)C(=O)O` [L-isoleucine], the “effect on the presence of fibrils in NFL-TBS40-63 formulation” value (shortened to “effect on the presence of fibrils”) in [1] is listed as “did not have any positive effect”.
With `CC(C)C[C@H](NC(=O)[C@H](CO)NC(=O)[C@H](CO)NC(=O)[C@H](CO)NC(=O)[C@@H](NC(=O)[C@@H]1CCCN1C(=O)[C@H](C)NC(=O)[C@H](CO)NC(=O)[C@H](Cc1ccc(O)cc1)NC(=O)[C@H](CO)NC(=O)[C@H](CO)NC(=O)[C@H](Cc1ccc(O)cc1)NC(=O)CCCC[C@@H]1SC[C@@H]2NC(=O)N[C@@H]21)C(C)C)C(=O)N[C@@H](CO)C(=O)N[C@H](C(=O)N[C@@H](CCCNC(=N)N)C(=O)N[C@@H](CCCNC(=N)N)C(=O)N[C@@H](CO)C(=O)N[C@@H](Cc1ccc(O)cc1)C(=O)N[C@@H](CO)C(=O)N[C@@H](CO)C(=O)N[C@@H](CO)C(=O)N[C@@H](CO)C(=O)NCC(=O)N[C@@H](CO)C(N)=O)C(C)C` [NFL-TBS40-63 peptide] (Biotin-YSSYSAPVSSSLSVRRSYSSSSGS-NH2; N-terminus and C-terminus assumed), the “inhibition of proliferation in vitro” value in series [2] is “able to inhibit the proliferation”. Moreover, the “percentage of dead cells” value is 16.6±5.4% in the series with U-87 MG cells (listed as Biot-NFL) and 30.1±7.9% in the series with U-87 MG cells (listed as GC01). The “opalescence of the solution” value in series [3] (F28C1 with 25 mM L-alanine, 1.5 mg/mL peptide) is recorded as “slightly opalescent”; in series [3] (F28C1 with 50 mM L-alanine, 1.5 mg/ml peptide), “very slightly opalescent”; in series [3] (F28C1 with 112 mM L-alanine, 1.5 mg/ml peptide), “slightly opalescent”; in [3] (F28C1 with 225 mM L-alanine, 1.5 mg/ml peptide), “slightly opalescent”; in series [3] (F28C1 with 670 mM L-alanine, 0.5 mg/mL peptide) it was “slightly opalescent”. The “peptide in the tumor by MALDI-TOF imaging” value in series [4] is recorded as “accumulation”. Further, the “structures in dry powder by SEM” value in series [5] was “fibril-like structures”. Besides, the “dissolution of the peptide” value in series [6] (3 mg/ml in G5% (5% glucose in water for injection), even after heating 1.5 h at 40 to 45° C.) is “less well dissolved”. Besides, the solubility (commonly the concentration that dissolves in the medium under given conditions) at 2 min in series [6] (50 mM glutamine and 50 mM arginine, read-out: solubility) was less than 800 µg/mL; in series [6] (in water, read-out: intrinsic aqueous solubility), less than 2500 µg/mL. Besides, the precipitation entry in series [6] (in the presence of sodium or potassium ions) is “tends to irreversibly precipitate”. For the same molecule, in [6] (nearly all commonly used parenteral buffer systems), the “solubility in commonly used parenteral buffer systems” value is listed as “insoluble”. The “cytotoxicity profile (cell viability, MTS)” value (in the series with U-87 MG human GBM cells [7]; in series [8]) was “retains its properties” in each case. Besides, the “passage of 0.2 μm sterilizing filter” value in [1] (1 mg/ml in water) is “very quickly block”. The “behaviour of pre-filter and sterilizing filters” value in series [1] (3 mg/ml in G5% (5% glucose in water for injection)) was “tended to clog up quite quickly”. The filter grade in [1] (F28C1 with 25 mM L-alanine, 1.5 mg/mL peptide, 1 mL, 13 mm 0.2 μm filter) was 2; in [1] (F28C1 with 50 mM L-alanine, 1.5 mg/ml peptide, 5 mL, 13 mm 0.2 μm filter), 1 to 2; in [1] (F28C1 with 112 mM L-alanine, 1.5 mg/ml peptide, 1 mL, 13 mm 0.2 μm filter), 2; in [1] (F28C1 with 225 mM L-alanine, 1.5 mg/ml peptide, 1 mL, 13 mm 0.2 μm filter), 2 to 3 and 3; in [1] (F28C1 with 670 mM L-alanine, 0.5 mg/mL peptide, 13 mm 0.2 μm filter), 3; in series [1] (with no alanine), 3. In series [1] (micronized powder in F28C1, after 0.45 μm pre-filtration), the “sterilizing filtration through 0.2 μm” value was “successful”. Further, in series [9] (micronized powder in F28C1, 1.5 hours mixing at ambient temperature (20° C.), prior to pre-filtration), the “DLS single peak, particle size” value is “around 300 nm”. The molecule further registered a DLS attenuator value in [9] (solution F28C heated to 40-45° C. before adding the peptide, mixing 1h30) of 10. Also, the “number and size of fibrils by TEM” value in [10] (composition containing 50 mM of L-alanine and 1 mg/mL peptide) is on record as “significantly reduced; also recorded: virtually no fibrils were visible”. In addition, the “fibrillar structures by TEM” value in [10] (in water, 1 mg/mL and 0.27 mg/ml) was “fibrillar structure; also recorded: fibril structure”. Besides, the “length of sub-visible fibrillar structures” value in [10] (self-association) was no more than 2 μm. The “effect on tubulin (immunostaining)” value (with U-87 MG human GBM cells [11]; in series [12]) was “alteration of tubulin” in each case.
For `CC(C)C[C@H](N)C(=O)O` [L-leucine], the “effect on the presence of fibrils” value in [1] is listed as “did not have any positive effect”.
Regarding `CC(C)[C@H](N)C(=O)O` [L-valine], in series [1], the “effect on the presence of fibrils” value was “did not have any positive effect”.
On the same count and under the same terms, to `CSCC[C@H](N)C(=O)O` [L-methionine] belongs “did not have any positive effect”; to `NC(=O)CC[C@H](N)C(=O)O` [L-glutamine], “did not have any positive effect”.
